{
  "source": "patent US10456358B2",
  "about": "“Isoxazoline compositions and use thereof in the prevention or treatment of parasite infestations in animals” (Intervet Inc., priority 2013, dated 2019)",
  "test_system": "poultry red mite (Dermanyssus gallinae)",
  "assay": "Efficacy study: medicated drinking water against artificially induced poultry red mite infestations of laying hens",
  "type": "in vivo",
  "description": "Groups A-D (n=6) were treated with doses of 2, 1 and 0.5 mg fluralaner/kg BW once or 1 mg fluralaner/kg BW twice (0.5 mg/kg BW on 2 occasions).\nDrinking water consumption in each was measured on three days prior to administration to calculate the average daily water consumption. Medicated water was prepared by diluting a fluralaner solution (10 mg/mL) as shown in the table below to the calculated fluralaner concentration.\nOn D0 (group D additionally on D7), the hens in groups A-D received fluralaner via medicated drinking water. Group E received un-medicated drinking water ad libitum.\nThe dose to be administered was calculated based on average body weights of each treatment group, obtained one day before treatment (D-1, D 6). A fluralaner stock solution was diluted in the drinking water to prepare medicated water ready for consumption.\nThe volume of medicated water offered per group on D0 (group D also on D7) was approximately 50% of the calculated mean daily water intake measured previously in the respective group in order to ensure consumption of the full dose.\nOnce all medicated water was consumed the other 50% volume of the mean daily water intake was supplied as tap water in the same drinker.\nOn Day 1, Day 5, Day 8, Day 12, D15, D19 and D22 four of six hens per group were infested with approximately 200 vital, D. gallinae mites (unfed nymphs and adults that starved before infestation for 7 days).\nFrom each infested hen approximately 25 engorged mites were collected and incubated for approximately 24 hours. The dead, damaged and/or live mites were counted visually using a binocular.\nMites were classified as dead if no movement was determined or mites lay in a dorsal position. Mites were classified as damaged if their movement was uncoordinated.\nThe Mite Mortality and Mite Inhibition percentage was calculated for each treated group in comparison to a not-treated negative control group.",
  "key": {"[1]": {"details": "Group A, 2 mg/kg BW once (D0) via drinking water, laying hens, infestation on D1"}, "[2]": {"details": "Group A, 2 mg/kg BW once (D0) via drinking water, laying hens, infestation on D5"}, "[3]": {"details": "Group A, 2 mg/kg BW once (D0) via drinking water, laying hens, infestation on D8"}, "[4]": {"details": "Group A, 2 mg/kg BW once (D0) via drinking water, laying hens, infestation on D12"}, "[5]": {"details": "Group A, 2 mg/kg BW once (D0) via drinking water, laying hens, infestation on D15"}, "[6]": {"details": "Group A, 2 mg/kg BW once (D0) via drinking water, laying hens, infestation on D19"}, "[7]": {"details": "Group A, 2 mg/kg BW once (D0) via drinking water, laying hens, infestation on D22"}, "[8]": {"details": "Group B, 1 mg/kg BW once (D0) via drinking water, laying hens, infestation on D1"}, "[9]": {"details": "Group B, 1 mg/kg BW once (D0) via drinking water, laying hens, infestation on D5"}, "[10]": {"details": "Group B, 1 mg/kg BW once (D0) via drinking water, laying hens, infestation on D8"}, "[11]": {"details": "Group B, 1 mg/kg BW once (D0) via drinking water, laying hens, infestation on D12"}, "[12]": {"details": "Group B, 1 mg/kg BW once (D0) via drinking water, laying hens, infestation on D15"}, "[13]": {"details": "Group B, 1 mg/kg BW once (D0) via drinking water, laying hens, infestation on D19"}, "[14]": {"details": "Group B, 1 mg/kg BW once (D0) via drinking water, laying hens, infestation on D22"}, "[15]": {"details": "Group C, 0.5 mg/kg BW once (D0) via drinking water, laying hens, infestation on D1"}, "[16]": {"details": "Group C, 0.5 mg/kg BW once (D0) via drinking water, laying hens, infestation on D5"}, "[17]": {"details": "Group C, 0.5 mg/kg BW once (D0) via drinking water, laying hens, infestation on D8"}, "[18]": {"details": "Group C, 0.5 mg/kg BW once (D0) via drinking water, laying hens, infestation on D12"}, "[19]": {"details": "Group C, 0.5 mg/kg BW once (D0) via drinking water, laying hens, infestation on D15"}, "[20]": {"details": "Group C, 0.5 mg/kg BW once (D0) via drinking water, laying hens, infestation on D19"}, "[21]": {"details": "Group C, 0.5 mg/kg BW once (D0) via drinking water, laying hens, infestation on D22"}, "[22]": {"details": "Group D, 1 (2 × 0.5) mg/kg BW (D0 and D7) via drinking water, laying hens, infestation on D1"}, "[23]": {"details": "Group D, 1 (2 × 0.5) mg/kg BW (D0 and D7) via drinking water, laying hens, infestation on D5"}, "[24]": {"details": "Group D, 1 (2 × 0.5) mg/kg BW (D0 and D7) via drinking water, laying hens, infestation on D8"}, "[25]": {"details": "Group D, 1 (2 × 0.5) mg/kg BW (D0 and D7) via drinking water, laying hens, infestation on D12"}, "[26]": {"details": "Group D, 1 (2 × 0.5) mg/kg BW (D0 and D7) via drinking water, laying hens, infestation on D15"}, "[27]": {"details": "Group D, 1 (2 × 0.5) mg/kg BW (D0 and D7) via drinking water, laying hens, infestation on D19"}, "[28]": {"details": "Group D, 1 (2 × 0.5) mg/kg BW (D0 and D7) via drinking water, laying hens, infestation on D22"}},
  "data": [
    {"smiles": "Cc1cc(C2=NOC(c3cc(Cl)cc(Cl)c3)(C(F)(F)F)C2)ccc1C(=O)NCC(=O)NCC(F)(F)F", "note": "(stereo not shown) [fluralaner, 4-[5-(3,5-Dichlorophenyl)-5-trifluoromethyl-4,5-dihydroisoxazol-3-yl]-2-methyl-N-[(2,2,2-trifluoro-ethylcarbamoyl)-methyl]-benzamide]", "values": [
      {"measurement": "% Inhibition of D. gallinae assessed 24 hours after infestation", "setting": "[1]", "value": 100, "unit": "%"},
      {"measurement": "% Mortality of D. gallinae assessed 24 hours after infestation", "setting": "[1]", "value": 100, "unit": "%"},
      {"measurement": "% Inhibition of D. gallinae assessed 24 hours after infestation", "setting": "[2]", "value": 100, "unit": "%"},
      {"measurement": "% Mortality of D. gallinae assessed 24 hours after infestation", "setting": "[2]", "value": 100, "unit": "%"},
      {"measurement": "% Inhibition of D. gallinae assessed 24 hours after infestation", "setting": "[3]", "value": 100, "unit": "%"},
      {"measurement": "% Mortality of D. gallinae assessed 24 hours after infestation", "setting": "[3]", "value": 100, "unit": "%"},
      {"measurement": "% Inhibition of D. gallinae assessed 24 hours after infestation", "setting": "[4]", "value": 100, "unit": "%"},
      {"measurement": "% Mortality of D. gallinae assessed 24 hours after infestation", "setting": "[4]", "value": 100, "unit": "%"},
      {"measurement": "% Inhibition of D. gallinae assessed 24 hours after infestation", "setting": "[5]", "value": 81, "unit": "%"},
      {"measurement": "% Mortality of D. gallinae assessed 24 hours after infestation", "setting": "[5]", "value": 77, "unit": "%"},
      {"measurement": "% Inhibition of D. gallinae assessed 24 hours after infestation", "setting": "[6]", "value": 14, "unit": "%"},
      {"measurement": "% Mortality of D. gallinae assessed 24 hours after infestation", "setting": "[6]", "value": 1, "unit": "%"},
      {"measurement": "% Inhibition of D. gallinae assessed 24 hours after infestation", "setting": "[7]", "value": 0, "unit": "%"},
      {"measurement": "% Mortality of D. gallinae assessed 24 hours after infestation", "setting": "[7]", "value": 0, "unit": "%"},
      {"measurement": "% Inhibition of D. gallinae assessed 24 hours after infestation", "setting": "[8]", "value": 100, "unit": "%"},
      {"measurement": "% Mortality of D. gallinae assessed 24 hours after infestation", "setting": "[8]", "value": 100, "unit": "%"},
      {"measurement": "% Inhibition of D. gallinae assessed 24 hours after infestation", "setting": "[9]", "value": 100, "unit": "%"},
      {"measurement": "% Mortality of D. gallinae assessed 24 hours after infestation", "setting": "[9]", "value": 100, "unit": "%"},
      {"measurement": "% Inhibition of D. gallinae assessed 24 hours after infestation", "setting": "[10]", "value": 100, "unit": "%"},
      {"measurement": "% Mortality of D. gallinae assessed 24 hours after infestation", "setting": "[10]", "value": 100, "unit": "%"},
      {"measurement": "% Inhibition of D. gallinae assessed 24 hours after infestation", "setting": "[11]", "value": 95, "unit": "%"},
      {"measurement": "% Mortality of D. gallinae assessed 24 hours after infestation", "setting": "[11]", "value": 94, "unit": "%"},
      {"measurement": "% Inhibition of D. gallinae assessed 24 hours after infestation", "setting": "[12]", "value": 81, "unit": "%"},
      {"measurement": "% Mortality of D. gallinae assessed 24 hours after infestation", "setting": "[12]", "value": 77, "unit": "%"},
      {"measurement": "% Inhibition of D. gallinae assessed 24 hours after infestation", "setting": "[13]", "value": 3, "unit": "%"},
      {"measurement": "% Mortality of D. gallinae assessed 24 hours after infestation", "setting": "[13]", "value": 2, "unit": "%"},
      {"measurement": "% Inhibition of D. gallinae assessed 24 hours after infestation", "setting": "[14]", "value": 0, "unit": "%"},
      {"measurement": "% Mortality of D. gallinae assessed 24 hours after infestation", "setting": "[14]", "value": 0, "unit": "%"},
      {"measurement": "% Inhibition of D. gallinae assessed 24 hours after infestation", "setting": "[15]", "value": 100, "unit": "%"},
      {"measurement": "% Mortality of D. gallinae assessed 24 hours after infestation", "setting": "[15]", "value": 100, "unit": "%"},
      {"measurement": "% Inhibition of D. gallinae assessed 24 hours after infestation", "setting": "[16]", "value": 100, "unit": "%"},
      {"measurement": "% Mortality of D. gallinae assessed 24 hours after infestation", "setting": "[16]", "value": 100, "unit": "%"},
      {"measurement": "% Inhibition of D. gallinae assessed 24 hours after infestation", "setting": "[17]", "value": 100, "unit": "%"},
      {"measurement": "% Mortality of D. gallinae assessed 24 hours after infestation", "setting": "[17]", "value": 97, "unit": "%"},
      {"measurement": "% Inhibition of D. gallinae assessed 24 hours after infestation", "setting": "[18]", "value": 75, "unit": "%"},
      {"measurement": "% Mortality of D. gallinae assessed 24 hours after infestation", "setting": "[18]", "value": 55, "unit": "%"},
      {"measurement": "% Inhibition of D. gallinae assessed 24 hours after infestation", "setting": "[19]", "value": 19, "unit": "%"},
      {"measurement": "% Mortality of D. gallinae assessed 24 hours after infestation", "setting": "[19]", "value": 15, "unit": "%"},
      {"measurement": "% Inhibition of D. gallinae assessed 24 hours after infestation", "setting": "[20]", "value": 0, "unit": "%"},
      {"measurement": "% Mortality of D. gallinae assessed 24 hours after infestation", "setting": "[20]", "value": 0, "unit": "%"},
      {"measurement": "% Inhibition of D. gallinae assessed 24 hours after infestation", "setting": "[21]", "value": 0, "unit": "%"},
      {"measurement": "% Mortality of D. gallinae assessed 24 hours after infestation", "setting": "[21]", "value": 0, "unit": "%"},
      {"measurement": "% Inhibition of D. gallinae assessed 24 hours after infestation", "setting": "[22]", "value": 100, "unit": "%"},
      {"measurement": "% Mortality of D. gallinae assessed 24 hours after infestation", "setting": "[22]", "value": 100, "unit": "%"},
      {"measurement": "% Inhibition of D. gallinae assessed 24 hours after infestation", "setting": "[23]", "value": 100, "unit": "%"},
      {"measurement": "% Mortality of D. gallinae assessed 24 hours after infestation", "setting": "[23]", "value": 100, "unit": "%"},
      {"measurement": "% Inhibition of D. gallinae assessed 24 hours after infestation", "setting": "[24]", "value": 100, "unit": "%"},
      {"measurement": "% Mortality of D. gallinae assessed 24 hours after infestation", "setting": "[24]", "value": 100, "unit": "%"},
      {"measurement": "% Inhibition of D. gallinae assessed 24 hours after infestation", "setting": "[25]", "value": 100, "unit": "%"},
      {"measurement": "% Mortality of D. gallinae assessed 24 hours after infestation", "setting": "[25]", "value": 100, "unit": "%"},
      {"measurement": "% Inhibition of D. gallinae assessed 24 hours after infestation", "setting": "[26]", "value": 99, "unit": "%"},
      {"measurement": "% Mortality of D. gallinae assessed 24 hours after infestation", "setting": "[26]", "value": 98, "unit": "%"},
      {"measurement": "% Inhibition of D. gallinae assessed 24 hours after infestation", "setting": "[27]", "value": 66, "unit": "%"},
      {"measurement": "% Mortality of D. gallinae assessed 24 hours after infestation", "setting": "[27]", "value": 59, "unit": "%"},
      {"measurement": "% Inhibition of D. gallinae assessed 24 hours after infestation", "setting": "[28]", "value": 27, "unit": "%"},
      {"measurement": "% Mortality of D. gallinae assessed 24 hours after infestation", "setting": "[28]", "value": 14, "unit": "%"},
      {"measurement": "onset of action", "setting": "all administered doses, via drinking water, laying hens", "value": "fast onset of action"},
      {"measurement": "inhibition of red poultry mites", "setting": "drinking water administration to poultry animals, for at least 15 days", "value": 99, "unit": "%"}
    ]}
  ]
}
